The record followed here is US10519134B2, “Pyrazole compounds and methods of making and using same” (Lundbeck La Jolla Research Center, Inc., priority 2015, dated 2019).

A word on the IC50: it is the midpoint of a concentration-inhibition curve. Low readings indicate greater potency in that assay, high ones weaker potency in that assay.

Assay [1] deals with T1, MAGL (Mus musculus, UniProt O35678).
T1 construct: Proteomes (mouse brain membrane fraction or cell lysates); from tissue; host or cells: mouse brain membrane fraction (or cell lysates)
T1 sequence (O35678 1-303): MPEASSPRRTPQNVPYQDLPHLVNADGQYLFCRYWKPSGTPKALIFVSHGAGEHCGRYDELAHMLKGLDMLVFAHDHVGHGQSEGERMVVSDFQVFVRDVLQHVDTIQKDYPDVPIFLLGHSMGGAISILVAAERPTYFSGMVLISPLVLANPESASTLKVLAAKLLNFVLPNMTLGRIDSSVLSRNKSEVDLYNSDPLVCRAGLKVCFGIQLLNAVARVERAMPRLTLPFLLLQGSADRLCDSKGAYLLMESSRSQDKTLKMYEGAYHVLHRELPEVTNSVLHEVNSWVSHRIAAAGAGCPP
Briefly: In vitro competitive activity-based protein profiling (mouse), MAGL gel band. Type of assay: biochemical. The following applies: for IC50: mouse; for inhibition at 1 µM: read-out: MAGL % inh. 1 μM. Summed up: (§1)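 Mouse brain membrane proteome or cell lysate (1.0 mg/mL protein) preincubated 30 min at 37 °C with varying inhibitor concentrations, then labelled 30 min at 37 °C with FP-Rh or HT-01 probe (50 μM stock). After SDS-PAGE, activity taken from fluorescent intensity of the MAGL and FAAH gel bands.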

Assay [2] has as its target T2, FAAH (Mus musculus, UniProt O08914).
T2 construct: Proteomes (mouse brain membrane fraction or cell lysates); from tissue; host or cells: mouse brain membrane fraction (or cell lysates)
T2 sequence (O08914 1-579): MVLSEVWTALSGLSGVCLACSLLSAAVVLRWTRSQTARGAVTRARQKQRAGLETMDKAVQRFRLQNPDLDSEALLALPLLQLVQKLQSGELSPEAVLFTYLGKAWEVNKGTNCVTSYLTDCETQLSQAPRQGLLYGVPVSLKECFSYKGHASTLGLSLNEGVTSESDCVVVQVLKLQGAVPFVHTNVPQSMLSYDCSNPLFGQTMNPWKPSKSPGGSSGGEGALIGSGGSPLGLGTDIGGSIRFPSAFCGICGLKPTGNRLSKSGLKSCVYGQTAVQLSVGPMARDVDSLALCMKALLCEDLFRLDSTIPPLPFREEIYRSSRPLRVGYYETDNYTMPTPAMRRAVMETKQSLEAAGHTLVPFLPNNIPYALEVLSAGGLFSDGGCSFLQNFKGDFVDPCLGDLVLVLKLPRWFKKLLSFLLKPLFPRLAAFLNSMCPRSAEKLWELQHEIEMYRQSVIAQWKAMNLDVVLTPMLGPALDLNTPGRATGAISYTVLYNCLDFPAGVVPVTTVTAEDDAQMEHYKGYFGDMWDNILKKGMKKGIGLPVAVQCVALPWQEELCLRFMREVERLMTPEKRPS
The experiment in a line: In vitro competitive activity-based protein profiling (mouse), FAAH gel band. Format: biochemical. The following applies: for IC50: mouse; for inhibition at 1 µM: read-out: FAAH % inh. 1 μM. The method in brief:
as §1

The target of assay [3] is T1, MAGL. The experiment in a line: Mouse brain proteomes from inhibitor treated mice (oral gavage, sacrificed 4 h after administration). To be noted: read-out: MAGL % inh. 5 mg/kg. Format: in vivo. The protocol: Compounds are tested to assess their MAGL and other serine hydrolase activity using the following in vitro and in vivo assays.
Preparation of Mouse Brain Proteomes from Inhibitor Treated Mice.
Inhibitors were administered to wild-type C57Bl/6J by oral gavage in a vehicle of polyethylene glycol. Each animal was sacrificed 4 h following administration and brain proteomes were prepared and analyzed according to previously established methods (See Niphakis, M. J., et al. (2011) ACS Chem. Neurosci. and Long, J. Z., et al. Nat. Chem. Biol. 5:37-44)

Turning to `CC(=O)Nc1ccn(C(=O)N2CCN(Cc3ccc(C(F)(F)F)cc3N3CCCCC3)CC2)n1` [Example 39, N-(1-(4-(2-(piperidin-1-yl)-4-(trifluoromethyl)benzyl)piperazine-1-carbonyl)-1H-pyrazol-3-yl)acetamide], in assay [1], the 50% inhibitory concentration (IC50) is at most 100 nM and the inhibition at 1 µM was at least 75%. Also, in assay [2], the IC50 lay within 1000 to 10000 nM and the inhibition at 1 µM was in the range of 0 to 25%. In addition, the inhibition at 5 mg/kg in assay [3] was at least 75%.

Take `CC(=O)Nc1ccn(C(=O)N2CCN(Cc3ccc(C(F)(F)F)cc3N3CC4CCC(C3)O4)CC2)n1` [Example 40, N-(1-(4-(2-(8-oxa-3-azabicyclo[3.2.1]octan-3-yl)-4-(trifluoromethyl)benzyl)piperazine-1-carbonyl)-1H-pyrazol-3-yl)acetamide]: in assay [1], the IC50 is at most 100 nM and the inhibition at 1 µM was at least 75%. Moreover, in assay [2], the IC50 was in the range of 1000 to 10000 nM and the inhibition at 1 µM was 0 to 25%. Besides, the inhibition at 5 mg/kg in assay [3] was 25 to 50%.

For `CC(=O)Nc1ccn(C(=O)N2CCN(Cc3ccc(C(F)(F)F)cc3N3CCN(S(C)(=O)=O)CC3)CC2)n1` [Example 41, N-(1-(4-(2-(4-(methylsulfonyl)piperazin-1-yl)-4-(trifluoromethyl)benzyl)piperazine-1-carbonyl)-1H-pyrazol-3-yl)acetamide], the IC50 was at most 100 nM in assay [1] and 1000 to 10000 nM in assay [2]. The values for the inhibition at 1 µM in assay [1] and in assay [2] were at least 75% and 0 to 25%, respectively. Further, the inhibition at 5 mg/kg in assay [3] was 0 to 25%.

On to `CC(=O)Nc1ccn(C(=O)N2CCN(Cc3ccc(C(F)(F)F)cc3N3CCN(C(C)=O)CC3)CC2)n1` [Example 42, N-(1-(4-(2-(4-acetylpiperazin-1-yl)-4-(trifluoromethyl)benzyl)piperazine-1-carbonyl)-1H-pyrazol-3-yl)acetamide], for which, in assay [1], the IC50 is at most 100 nM and the inhibition at 1 µM is at least 75%. In addition, in assay [2], the IC50 is 1000 to 10000 nM and the inhibition at 1 µM fell in the range of 0 to 25%. Besides, the inhibition at 5 mg/kg in assay [3] was in the range of 0 to 25%.

Turning to `CC(=O)Nc1ccn(C(=O)N2CCN(Cc3ccc(C(F)(F)F)cc3N3CCC4(CC3)CCN(S(C)(=O)=O)C4)CC2)n1` [Example 43, N-(1-(4-(2-(2-(methylsulfonyl)-2,8-diazaspiro[4.5]decan-8-yl)-4-(trifluoromethyl)benzyl)piperazine-1-carbonyl)-1H-pyrazol-3-yl)acetamide], in assay [1], the IC50 was at most 100 nM and the inhibition at 1 µM was at least 75%. In addition, in assay [2], the IC50 is 1000 to 10000 nM and the inhibition at 1 µM fell in the range of 0 to 25%. In assay [3], the inhibition at 5 mg/kg was in the range of 0 to 25%.

Regarding `CC(=O)Nc1ccn(C(=O)N2CCN(Cc3ccc(C(F)(F)F)cc3N3CCC4(C3)CN(S(C)(=O)=O)C4)CC2)n1` [Example 44, N-(1-(4-(2-(2-(methylsulfonyl)-2,6-diazaspiro[3.4]octan-6-yl)-4-(trifluoromethyl)benzyl)piperazine-1-carbonyl)-1H-pyrazol-3-yl)acetamide], in assay [1], the IC50 is at most 100 nM and the inhibition at 1 µM was at least 75%. In assay [2], the IC50 was 1000 to 10000 nM and the inhibition at 1 µM is 0 to 25%. In addition, the inhibition at 5 mg/kg in assay [3] was in the range of 0 to 25%.

Turning to `CC(=O)Nc1ccn(C(=O)N2CCN(Cc3ccc(C(F)(F)F)cc3N3CCN(C4CC4)CC3)CC2)n1` [Example 47, N-(1-(4-(2-(4-cyclopropylpiperazin-1-yl)-4-(trifluoromethyl)benzyl)piperazine-1-carbonyl)-1H-pyrazol-3-yl)acetamide], in assay [1], the IC50 was at most 100 nM and the inhibition at 1 µM was at least 75%. Also, in assay [2], the IC50 lay within 1000 to 10000 nM and the inhibition at 1 µM lay within 0 to 25%. For the same compound, the inhibition at 5 mg/kg in assay [3] is 25 to 50%.

Take `CCN1CCN(c2cc(C(F)(F)F)ccc2CN2CCN(C(=O)n3ccc(NC(C)=O)n3)CC2)CC1` [Example 48, N-(1-(4-(2-(4-ethylpiperazin-1-yl)-4-(trifluoromethyl)benzyl)piperazine-1-carbonyl)-1H-pyrazol-3-yl)acetamide]: in assay [1], the IC50 is at most 100 nM and the inhibition at 1 µM is at least 75%. Also, in assay [2], the IC50 lay in the range of 1000 to 10000 nM and the inhibition at 1 µM lay within 0 to 25%. In addition, in assay [3], the inhibition at 5 mg/kg lay in the range of 0 to 25%.

For `CC(=O)Nc1ccn(C(=O)N2CCN(Cc3ccc(C(F)(F)F)cc3N3CC4COCC4C3)CC2)n1` (centres unmarked) [Example 49, N-(1-(4-(2-(dihydro-1H-furo[3,4-c]pyrrol-5(3H,6H,6aH)-yl)-4-(trifluoromethyl)benzyl)piperazine-1-carbonyl)-1H-pyrazol-3-yl)acetamide], in assay [1], the IC50 was at most 100 nM and the inhibition at 1 µM is at least 75%. In assay [2], the IC50 was 1000 to 10000 nM and the inhibition at 1 µM was 0 to 25%. In assay [3], the inhibition at 5 mg/kg lay in the range of 0 to 25%.

Turning to `CC(=O)Nc1ccn(C(=O)N2CCN(Cc3ccc(Cl)cc3N3CCCCC3)CC2)n1` [Example 50, N-(1-(4-(4-chloro-2-(piperidin-1-yl)benzyl)piperazine-1-carbonyl)-1H-pyrazol-3-yl)acetamide], in assay [1], the IC50 is at most 100 nM and the inhibition at 1 µM was at least 75%. Also, in assay [2], the IC50 lay in the range of 1000 to 10000 nM and the inhibition at 1 µM is 0 to 25%. The inhibition at 5 mg/kg in assay [3] was at least 75%.

`CC(=O)Nc1ccn(C(=O)N2CCN(Cc3ccc(Cl)cc3N3CC4CCC(C3)O4)CC2)n1` [Example 51, N-(1-(4-(2-(8-oxa-3-azabicyclo[3.2.1]octan-3-yl)-4-chlorobenzyl)piperazine-1-carbonyl)-1H-pyrazol-3-yl)acetamide]: in assay [1], the IC50 was at most 100 nM and the inhibition at 1 µM was at least 75%. In addition, in assay [2], the IC50 is 1000 to 10000 nM and the inhibition at 1 µM lay within 0 to 25%. Moreover, in assay [3], the inhibition at 5 mg/kg fell in the range of 25 to 50%.

`CC(=O)Nc1ccn(C(=O)N2CCN(Cc3ccc(Cl)cc3N3CCN(C(C)=O)CC3)CC2)n1` [Example 53, N-(1-(4-(2-(4-acetylpiperazin-1-yl)-4-chlorobenzyl)piperazine-1-carbonyl)-1H-pyrazol-3-yl)acetamide]: the IC50 in assay [1] was at most 100 nM; in assay [2], 1000 to 10000 nM. Also, the inhibition at 1 µM in assay [1] was at least 75%; in assay [2], 0 to 25%. Besides, the inhibition at 5 mg/kg in assay [3] is 0 to 25%.

Regarding `CC(=O)Nc1ccn(C(=O)N2CCN(Cc3ccc(Cl)cc3N3CCC4(CC3)CCN(S(C)(=O)=O)C4)CC2)n1` [Example 54, N-(1-(4-(4-chloro-2-(2-(methylsulfonyl)-2,8-diazaspiro[4.5]decan-8-yl)benzyl)piperazine-1-carbonyl)-1H-pyrazol-3-yl)acetamide], the IC50 in assay [1] is at most 100 nM; in assay [2], 1000 to 10000 nM. Further, the inhibition at 1 µM was at least 75% in assay [1] and 0 to 25% in assay [2]. The inhibition at 5 mg/kg in assay [3] lay within 0 to 25%.

In the case of `CC(=O)Nc1ccn(C(=O)N2CCN(Cc3ccc(Cl)cc3N3CCC4(C3)CN(S(C)(=O)=O)C4)CC2)n1` [Example 55, N-(1-(4-(4-chloro-2-(2-(methylsulfonyl)-2,6-diazaspiro[3.4]octan-6-yl)benzyl)piperazine-1-carbonyl)-1H-pyrazol-3-yl)acetamide], in assay [1], the IC50 was at most 100 nM and the inhibition at 1 µM was at least 75%. Also, in assay [2], the IC50 is 1000 to 10000 nM and the inhibition at 1 µM was 0 to 25%. Moreover, the inhibition at 5 mg/kg in assay [3] was in the range of 0 to 25%.

On to `CC(=O)Nc1ccn(C(=O)N2CCN(Cc3ccc(Cl)cc3N3CCC4(CCOCC4)C3)CC2)n1` [Example 56, N-(1-(4-(4-chloro-2-(8-oxa-2-azaspiro[4.5]decan-2-yl)benzyl)piperazine-1-carbonyl)-1H-pyrazol-3-yl)acetamide], for which the values for the IC50 in assay [1] and in assay [2] were at most 100 nM and 1000 to 10000 nM, respectively. The inhibition at 1 µM in assay [1] is at least 75%; in assay [2], 0 to 25%. For the same compound, the inhibition at 5 mg/kg in assay [3] is 25 to 50%.

As to `CC(=O)Nc1ccn(C(=O)N2CCN(Cc3ccc(Cl)cc3N3CCN(C4CC4)CC3)CC2)n1` [Example 58, N-(1-(4-(4-chloro-2-(4-cyclopropylpiperazin-1-yl)benzyl)piperazine-1-carbonyl)-1H-pyrazol-3-yl)acetamide], in assay [1], the IC50 was at most 100 nM and the inhibition at 1 µM is at least 75%. In assay [2], the IC50 was in the range of 1000 to 10000 nM and the inhibition at 1 µM lay in the range of 0 to 25%. In addition, the inhibition at 5 mg/kg in assay [3] is at least 75%.
